This is an account of results in patent publication US20250304700A1, “ANTI-BLOOD DENDRITIC CELL ANTIGEN 2 ANTIBODIES AND USES THEREOF” (Biogen MA Inc., priority 2012, published 2025).

The target in one experiment is T1, surface human BDCA2 (Homo sapiens, UniProt Q8WTT0).
T1 construct: stably transfected DG44 CHO cells co-expressing full-length BDCA2 and FcεRIγcDNAs (human or cynomolgus monkey); expressed in transfected cells
T1 sequence (Q8WTT0 1-213): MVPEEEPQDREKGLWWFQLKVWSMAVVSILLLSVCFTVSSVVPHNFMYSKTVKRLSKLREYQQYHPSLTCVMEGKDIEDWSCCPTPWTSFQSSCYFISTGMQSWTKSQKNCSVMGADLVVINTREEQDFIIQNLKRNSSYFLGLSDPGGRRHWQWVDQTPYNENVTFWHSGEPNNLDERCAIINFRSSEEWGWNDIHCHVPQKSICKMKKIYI
T1 sequence (P30273 19-86 partner): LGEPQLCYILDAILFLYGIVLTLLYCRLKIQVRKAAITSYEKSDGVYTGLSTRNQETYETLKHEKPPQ
Description: Direct binding dilution titration FACS on surface human BDCA2. The conditions noted are these: transfected cells co-expressing BDCA2 and FcεRIγ. The procedure:
Expression vectors (ch24F4 heavy chain vectors pYL670 or pYL672 and ch24F4 light chain vector pYL671) were co-transfected into 293-EBNA cells and transfected cells were tested for antibody secretion and specificity (empty vector- and a molecularly cloned irrelevant mAb vector-transfected cells served as controls). […] Direct FACS binding to surface human BDCA2 confirmed the specificity of ch24F4. The EC50 binding of both variants of ch24F4 was equivalent to that of the murine 24F4 mAb by direct binding to surface expressed human BDCA2 by dilution titration FACS assay. Stable CHO cell lines secreting ch24F4-huIgG1, kappa mAb and agly ch24F4-huIgG4/G1 hybrid kappa mAb were produced by co-transfection with pYL672/pYL671 and pYL670/pYL671, respectively.
Site-directed mutagenesis was performed using Agilent's QuikChange II mutagenesis kit following the manufacturer's recommended protocol. The C95S variant was constructed using the mutagenic primer 5′ GCAACCTATTACTGTCAACAAAGTAATGAGGATCCTCGGAC 3′ (SEQ ID NO: 38) and its reverse complement, which introduced a new HincII site, producing plasmid pEAG2678. The C95T variant was constructed using the mutagenic primer 5′ CAACCTATTACTGTCAGCAAACTAATGAAGATCCTCGGACGTTCG 3′ (SEQ ID NO: 39) and its reverse complement, which removed a BamHI site, producing plasmid pEAG2679. […]

Experiment [1] deals with TLR9-induced IFNα production in whole blood. Description: Whole blood assay, TLR9-induced IFNα production. The conditions noted are these: CpG-A stimulated whole blood. The class given is cell-based, human. On the procedure: Whole blood was drawn from heparinized venous blood of healthy donors. […] CpG-A was added at 200 μg/mL, which was determined to be optimal for stimulation of IFNα production in whole blood. Plates were incubated for 18 hours at 37° C. and supernatants collected for use in IFNα ELISA assays (PBL InterferonSource). The assays were performed according to the manufacturer's protocol. Shown in FIG. 15A is a representative experiment of 6 independent experiments performed.
Specifically, whole blood from 2 SLE patients or 2 healthy donors was provided by Bioreclamation LLC by overnight shipping. […] Plates were incubated for 18 hours at 37° C. and supernatants collected for use in IFNα ELISA assays (PBL InterferonSource). The assays were performed according to the manufacturer's protocol.
CpG-A was added at 75 μg/mL (open square), which was determined to be optimal for stimulation of IFNα production in whole blood. Plates were incubated for 18 hours at 37° C. and supernatants collected for use in IFNα ELISA assays (PBL InterferonSource).
The whole blood was then collected, lysed, and BDCA2 expression was assessed by flow cytometry using the FITC-conjugated non-cross blocking antibody 2D6. […] The supernatants were harvested and evaluated for IFNα by ELISA.

The subject of experiment [2] is TLR9-induced IFNα production by PBMC. Description: PBMC assay, TLR9-induced IFNα production. Conditions: 1 or 5 μM CpG-A, 18 hours. The class given is cell-based, human. The procedure:
PBMCs from heparinized venous blood of healthy donors were isolated by discontinuous gradient centrifugation over Ficoll, washed in PBS and re-suspended in complete culture medium (RPMI with 3% FBS). […] The plates were incubated overnight (18 hours) at 37° C., and the supernatants were collected for evaluation in IFNα ELISA assays (PBL InterferonSource). The assays were performed according to the manufacturer's protocol.
pDCs are the major producers of IFN in response to TLR7 and TLR9 stimulation. pDCs can produce thousand-fold more IFN than any other cell type. […] The plates were incubated overnight (18 hours) at 37° C. and 5% CO2. Supernatants were collected for evaluation in IFNα ELISA assays.

For the substance “24F4S: hu24F4 H4/L1 with C95S light chain; differs from BIIB059 by 1 amino acid residue”, the “direct binding to surface human BDCA2, in words” value with surface human BDCA2 is listed as ““best” variants”.

As to “BIIB059: humanized IgG1 anti-BDCA2 antibody, mature heavy chain SEQ ID NO: 4 and mature light chain SEQ ID NO: 3”, in experiment [1], the “other cytokines and chemokines in whole blood” value was “inhibition of a large array of cytokines and chemokines”. For the same substance, the figures for the “average IC50, inhibition of TLR9-induced IFNα production” value in experiment [2] (PBMC from SLE patients) and in experiment [2] (PBMC from healthy donors) were 0.03 ± 0.01 µg/mL and 0.04 ± 0.05 µg/mL, respectively.
